Assay results published in PubChem BioAssay AID1919014 (Molecular Pharmacology Branch, DTP, NCI, 2023).

System: NCI-H1341 complex spheroids, percent test/control
Experiment: Anticancer human tumor NCI-H1341 cell line growth inhibition [AhR];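 also: spheroids exposed to agents for seven days before readout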
Conditions: for IC50: curve of first compound; for viability, T/C: stronger effect = lower value
Outline: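 Complex tumor spheroids co-cultured with HUVEC and human MSC stroma; AhR antagonists tested in combination with standard-of-care and investigational agents. Top concentration at or near clinical Cmax (else 10 microM), half-log dilutions; growth expressed as percent test/control.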

[1] = second compound 0.1 µM, first compound 0.0316 µM
[2] = second compound 0.1 µM, first compound 0.1 µM
[3] = second compound 0.1 µM, first compound 0.316 µM
[4] = second compound 0.1 µM, first compound 1 µM
[5] = second compound 0.1 µM, first compound 3.16 µM
[6] = second compound 0.1 µM, first compound 10 µM
[7] = second compound 0.316 µM, first compound 0.0316 µM
[8] = second compound 0.316 µM, first compound 0.1 µM
[9] = second compound 0.316 µM, first compound 0.316 µM
[10] = second compound 0.316 µM, first compound 1 µM
[11] = second compound 0.316 µM, first compound 3.16 µM
[12] = second compound 0.316 µM, first compound 10 µM
[13] = second compound 1 µM, first compound 0.0316 µM
[14] = second compound 1 µM, first compound 0.1 µM
[15] = second compound 1 µM, first compound 0.316 µM
[16] = second compound 1 µM, first compound 1 µM
[17] = second compound 1 µM, first compound 3.16 µM
[18] = second compound 1 µM, first compound 10 µM
[19] = second compound 3.16 µM, first compound 0.0316 µM
[20] = second compound 3.16 µM, first compound 0.1 µM
[21] = second compound 3.16 µM, first compound 0.316 µM
[22] = second compound 3.16 µM, first compound 1 µM
[23] = second compound 3.16 µM, first compound 3.16 µM
[24] = second compound 3.16 µM, first compound 10 µM
[25] = second compound 10 µM, first compound 0.0316 µM
[26] = second compound 10 µM, first compound 0.1 µM
[27] = second compound 10 µM, first compound 0.316 µM
[28] = second compound 10 µM, first compound 1 µM
[29] = second compound 10 µM, first compound 3.16 µM
[30] = second compound 10 µM, first compound 10 µM

SMILES	IC50 (second compound 0.1 µM) [nM]	IC50 (second compound 0.316 µM) [nM]	IC50 (second compound 1 µM) [nM]	IC50 (second compound 3.16 µM) [nM]	IC50 (second compound 10 µM) [nM]	viability, T/C [1] [%]	viability, T/C [2] [%]	viability, T/C [3] [%]	viability, T/C [4] [%]	viability, T/C [5] [%]	viability, T/C [6] [%]	viability, T/C [7] [%]	viability, T/C [8] [%]	viability, T/C [9] [%]	viability, T/C [13] [%]	viability, T/C [14] [%]	viability, T/C [19] [%]	viability, T/C [20] [%]	viability, T/C [25] [%]	viability, T/C [26] [%]	also measured
COc1cc(Nc2ncc3c(n2)-c2ccc(Cl)cc2C(c2c(F)cccc2OC)=NC3)ccc1C(=O)O + CC(CO)NC(=O)c1cc(-c2ccc(Cl)cc2)nn(-c2cnn(C)c2)c1=O	< 31.6	< 31.6	< 31.6	< 31.6	< 31.6	39.7	45.7	37.7	34.2	28.7	28.6	50.5	34.5	35.5	46.4	44.2	38.4	35.4	35.6	39.7	viability, T/C [10]: 38.2%; viability, T/C [11]: 29.5%; viability, T/C [12]: 27.6%; viability, T/C [15]: 37.2%; viability, T/C [16]: 37.5%; viability, T/C [17]: 33.1%; viability, T/C [18]: 26.7%; viability, T/C [21]: 34%; viability, T/C [22]: 35.8%; viability, T/C [23]: 30.6%; viability, T/C [24]: 27.6%; viability, T/C [27]: 39%; viability, T/C [28]: 29.2%; viability, T/C [29]: 27%; viability, T/C [30]: 28.2%
Cn1ncnc1C1c2n[nH]c(=O)c3cc(F)cc(c23)NC1c1ccc(F)cc1 (stereo not given) + CC(CO)NC(=O)c1cc(-c2ccc(Cl)cc2)nn(-c2cnn(C)c2)c1=O	> 100	> 100	> 100	> 100	> 100	83.2	77.6					91.8	72.3		80.5	73.9	76.2	65.9	66.1	69.2	viability, T/C (second compound 0.1 µM, first compound 0.000316 µM): 79.2%; viability, T/C (second compound 0.1 µM, first compound 0.001 µM): 83.4%; viability, T/C (second compound 0.1 µM, first compound 0.00316 µM): 84%; viability, T/C (second compound 0.1 µM, first compound 0.01 µM): 73.5%; viability, T/C (second compound 0.316 µM, first compound 0.000316 µM): 85%; viability, T/C (second compound 0.316 µM, first compound 0.001 µM): 95.7%; viability, T/C (second compound 0.316 µM, first compound 0.00316 µM): 88.8%; viability, T/C (second compound 0.316 µM, first compound 0.01 µM): 76.9%; viability, T/C (second compound 1 µM, first compound 0.000316 µM): 72.5%; viability, T/C (second compound 1 µM, first compound 0.001 µM): 95.4%; viability, T/C (second compound 1 µM, first compound 0.00316 µM): 77.5%; viability, T/C (second compound 1 µM, first compound 0.01 µM): 85.7%; viability, T/C (second compound 3.16 µM, first compound 0.000316 µM): 87.5%; viability, T/C (second compound 3.16 µM, first compound 0.001 µM): 93.8%; viability, T/C (second compound 3.16 µM, first compound 0.00316 µM): 77.1%; viability, T/C (second compound 3.16 µM, first compound 0.01 µM): 62.4%; viability, T/C (second compound 10 µM, first compound 0.000316 µM): 72.4%; viability, T/C (second compound 10 µM, first compound 0.001 µM): 84.2%; viability, T/C (second compound 10 µM, first compound 0.00316 µM): 81%; viability, T/C (second compound 10 µM, first compound 0.01 µM): 65.2%
NS(=O)(=O)OCC1CC(n2ccc3c(NC4CCc5ccccc54)ncnc32)CC1O (stereo not given) + CC(CO)NC(=O)c1cc(-c2ccc(Cl)cc2)nn(-c2cnn(C)c2)c1=O	< 31.6	< 31.6	< 31.6	< 31.6	< 31.6	33	28	11	5.48	5.17	3.34	37.6	28.2	13.5	39.7	31.2	32.1	27.6	29.1	23.1	viability, T/C [10]: 6.9%; viability, T/C [11]: 3.38%; viability, T/C [12]: 3.76%; viability, T/C [15]: 13.1%; viability, T/C [16]: 6.82%; viability, T/C [17]: 4.46%; viability, T/C [18]: 3.84%; viability, T/C [21]: 14.8%; viability, T/C [22]: 7.34%; viability, T/C [23]: 5.49%; viability, T/C [24]: 4.2%; viability, T/C [27]: 13.8%; viability, T/C [28]: 7.32%; viability, T/C [29]: 5.1%; viability, T/C [30]: 2.95%
O=C(C=Cc1cccc(S(=O)(=O)Nc2ccccc2)c1)NO + CC(CO)NC(=O)c1cc(-c2ccc(Cl)cc2)nn(-c2cnn(C)c2)c1=O	230	278	258	262	163	73.7	65.4	41.8	27.1	4.5	0.64	81.9	65.6	48.6	84.8	68.1	78.9	63.3	70.6	52.7	viability, T/C [10]: 27.8%; viability, T/C [11]: 5.91%; viability, T/C [12]: 0.46%; viability, T/C [15]: 45.7%; viability, T/C [16]: 25.5%; viability, T/C [17]: 5.09%; viability, T/C [18]: 1.14%; viability, T/C [21]: 49.7%; viability, T/C [22]: 21.9%; viability, T/C [23]: 5.78%; viability, T/C [24]: 0.71%; viability, T/C [27]: 44.5%; viability, T/C [28]: 20.3%; viability, T/C [29]: 5.56%; viability, T/C [30]: 0.44%
